Data taken from PubChem BioAssay AID1963836 (Molecular Pharmacology Branch, DTP, NCI, 2024).

Test system: 857933-349-R-J2-PDC complex spheroid viability
Assay: Anticancer human tumor 857933-349-R-J2-PDC patient-derived colon adenocarcinoma cell line growth inhibition [POLQ]
Settings: for IC50: curve of first compound; for viability, T/C: stronger effect = lower value
Summary of the method: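 Growth inhibition in 3D: complex spheroids (tumor PDC, HUVEC, MSC) treated with POLQ inhibitor combinations; where Cmax unknown, highest tested concentration 10 microM, except SN-38 at 1 microM.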
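Further: spheroids exposed to compounds for seven days before readout.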

## CC(=O)O[C@H]1C(=O)[C@@]2(C)[C@H]([C@H](OC(=O)c3ccccc3)[C@]3(O)C[C@H](OC(=O)[C@H](O)[C@@H](NC(=O)c4ccccc4)c4ccccc4)C(C)=C1C3(C)C)[C@]1(OC(C)=O)CO[C@@H]1C[C@@H]2O + Cc1cccc(N(C)C(=O)C2C(O)CCN2c2nc(C)cc(C(F)(F)F)c2C#N)c1
Second compound 0.0316 µM
  IC50: < 9.49 nM
Second compound 0.1 µM
  IC50: < 9.49 nM
Second compound 0.316 µM
  IC50: < 9.49 nM
Second compound 1 µM
  IC50: < 9.49 nM
Second compound 3.16 µM
  IC50: 10.7 nM
Second compound 10 µM
  IC50: < 9.49 nM
Second compound 0.0316 µM, first compound 0.00949 µM
  viability, T/C: 45.4%
Second compound 0.0316 µM, first compound 0.03 µM
  viability, T/C: 21.2%
Second compound 0.0316 µM, first compound 0.0949 µM
  viability, T/C: 10.7%
Second compound 0.0316 µM, first compound 0.3 µM
  viability, T/C: 11.8%
Second compound 0.0316 µM, first compound 0.949 µM
  viability, T/C: 9.59%
Second compound 0.0316 µM, first compound 3 µM
  viability, T/C: 14.6%
Second compound 0.1 µM, first compound 0.00949 µM
  viability, T/C: 40.1%
Second compound 0.1 µM, first compound 0.03 µM
  viability, T/C: 16.9%
Second compound 0.1 µM, first compound 0.0949 µM
  viability, T/C: 12.6%
Second compound 0.1 µM, first compound 0.3 µM
  viability, T/C: 10.6%
Second compound 0.1 µM, first compound 0.949 µM
  viability, T/C: 14.4%
Second compound 0.1 µM, first compound 3 µM
  viability, T/C: 13.8%
Second compound 0.316 µM, first compound 0.00949 µM
  viability, T/C: 40%
Second compound 0.316 µM, first compound 0.03 µM
  viability, T/C: 19.5%
Second compound 0.316 µM, first compound 0.0949 µM
  viability, T/C: 10.1%
Second compound 0.316 µM, first compound 0.3 µM
  viability, T/C: 12%
Second compound 0.316 µM, first compound 0.949 µM
  viability, T/C: 12.3%
Second compound 0.316 µM, first compound 3 µM
  viability, T/C: 12.4%
Second compound 1 µM, first compound 0.00949 µM
  viability, T/C: 47.7%
Second compound 1 µM, first compound 0.03 µM
  viability, T/C: 20%
Second compound 1 µM, first compound 0.0949 µM
  viability, T/C: 12.6%
Second compound 1 µM, first compound 0.3 µM
  viability, T/C: 10.4%
Second compound 1 µM, first compound 0.949 µM
  viability, T/C: 10.9%
Second compound 1 µM, first compound 3 µM
  viability, T/C: 13.4%
Second compound 3.16 µM, first compound 0.00949 µM
  viability, T/C: 54%
Second compound 3.16 µM, first compound 0.03 µM
  viability, T/C: 15.1%
Second compound 3.16 µM, first compound 0.0949 µM
  viability, T/C: 10.4%
Second compound 3.16 µM, first compound 0.3 µM
  viability, T/C: 12.1%
Second compound 3.16 µM, first compound 0.949 µM
  viability, T/C: 12.1%
Second compound 3.16 µM, first compound 3 µM
  viability, T/C: 13.5%
Second compound 10 µM, first compound 0.00949 µM
  viability, T/C: 35.4%
Second compound 10 µM, first compound 0.03 µM
  viability, T/C: 14.5%
Second compound 10 µM, first compound 0.0949 µM
  viability, T/C: 13.6%
Second compound 10 µM, first compound 0.3 µM
  viability, T/C: 11.8%
Second compound 10 µM, first compound 0.949 µM
  viability, T/C: 13.3%
Second compound 10 µM, first compound 3 µM
  viability, T/C: 15.4%

## COc1cccc(OCCCN)c1-c1cc(Nc2cnc(C#N)cn2)n[nH]1 + Cc1cccc(N(C)C(=O)C2C(O)CCN2c2nc(C)cc(C(F)(F)F)c2C#N)c1
Second compound 0.0316 µM
  IC50: 763 nM
Second compound 0.1 µM
  IC50: > 1000 nM
Second compound 0.316 µM
  IC50: > 1000 nM
Second compound 1 µM
  IC50: > 1000 nM
Second compound 3.16 µM
  IC50: 511 nM
Second compound 10 µM
  IC50: > 1000 nM
Second compound 0.0316 µM, first compound 0.00316 µM
  viability, T/C: 96.2%
Second compound 0.0316 µM, first compound 0.01 µM
  viability, T/C: 94.5%
Second compound 0.0316 µM, first compound 0.0316 µM
  viability, T/C: 97%
Second compound 0.0316 µM, first compound 0.1 µM
  viability, T/C: 86.9%
Second compound 0.0316 µM, first compound 0.316 µM
  viability, T/C: 64.6%
Second compound 0.0316 µM, first compound 1 µM
  viability, T/C: 45.5%
Second compound 0.1 µM, first compound 0.00316 µM
  viability, T/C: 105%
Second compound 0.1 µM, first compound 0.01 µM
  viability, T/C: 84.2%
Second compound 0.1 µM, first compound 0.0316 µM
  viability, T/C: 89.2%
Second compound 0.1 µM, first compound 0.1 µM
  viability, T/C: 73%
Second compound 0.1 µM, first compound 0.316 µM
  viability, T/C: 66.3%
Second compound 0.1 µM, first compound 1 µM
  viability, T/C: 50.7%
Second compound 0.316 µM, first compound 0.00316 µM
  viability, T/C: 102%
Second compound 0.316 µM, first compound 0.01 µM
  viability, T/C: 99.8%
Second compound 0.316 µM, first compound 0.0316 µM
  viability, T/C: 90.9%
Second compound 0.316 µM, first compound 0.1 µM
  viability, T/C: 56.8%
Second compound 0.316 µM, first compound 0.316 µM
  viability, T/C: 61%
Second compound 0.316 µM, first compound 1 µM
  viability, T/C: 55.5%
Second compound 1 µM, first compound 0.00316 µM
  viability, T/C: 110%
Second compound 1 µM, first compound 0.01 µM
  viability, T/C: 96.3%
Second compound 1 µM, first compound 0.0316 µM
  viability, T/C: 85.6%
Second compound 1 µM, first compound 0.1 µM
  viability, T/C: 83%
Second compound 1 µM, first compound 0.316 µM
  viability, T/C: 56.4%
Second compound 1 µM, first compound 1 µM
  viability, T/C: 52.9%
Second compound 3.16 µM, first compound 0.00316 µM
  viability, T/C: 98.7%
Second compound 3.16 µM, first compound 0.01 µM
  viability, T/C: 110%
Second compound 3.16 µM, first compound 0.0316 µM
  viability, T/C: 81.8%
Second compound 3.16 µM, first compound 0.1 µM
  viability, T/C: 69.6%
Second compound 3.16 µM, first compound 0.316 µM
  viability, T/C: 59.9%
Second compound 3.16 µM, first compound 1 µM
  viability, T/C: 40.7%
Second compound 10 µM, first compound 0.00316 µM
  viability, T/C: 90.8%
Second compound 10 µM, first compound 0.01 µM
  viability, T/C: 86.5%
Second compound 10 µM, first compound 0.0316 µM
  viability, T/C: 77.4%
Second compound 10 µM, first compound 0.1 µM
  viability, T/C: 67.9%
Second compound 10 µM, first compound 0.316 µM
  viability, T/C: 61.2%
Second compound 10 µM, first compound 1 µM
  viability, T/C: 52.5%
